Laboratory results as given in the supplement of paper PMC10627819.

Columns and labels:
[1] = system: S. aureus DSM 20231; test: Bliss interaction score (quartile over a dose matrix) (fitness difference); higher = more antagonism (negative = synergy)
Outline: (§1)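 Fitness was defined as normalised growth: OD595 at the start of stationary phase divided by the plate's robust no-drug mean and capped at 1. Single-drug fitness was inferred from combination measurements. The Bliss score is observed fitness minus the product of the single-drug values, summarised by quartiles across technical, biological and donor/recipient replicates.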

[2] = system: S. aureus Newman; test: as above
Outline: as §1

[3] = system: S. pneumoniae D39V; test: as above
Outline: as §1

[4] = system: B. subtilis 168; test: as above
Outline: as §1

[5] = system: S. aureus DSM 20231; test: fitness (endpoint OD595 vs no drug) (fraction); higher = more growth
Outline: (§2)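 Bacterial fitness was scored as optical density at the stationary-phase transition relative to the robust mean of no-drug control wells. Scores are capped at 1. The growth data were OD595 readings every 30 min for 14 h at 37 °C, background-subtracted against the first reading, from 384-well plates inoculated at OD595 0.01 in TSB, LB Lennox or CY.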

[6] = system: B. subtilis 168; test: as above
Outline: as §2

[7] = system: S. pneumoniae D39V; test: as above
Outline: as §2
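Wherever Bliss interaction score (quartile over a dose matrix) is given: first quartile when negative (synergy) and third quartile when positive (antagonism).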
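Wherever fitness (endpoint OD595 vs no drug) is given: OD595 on entry to stationary phase over no-drug wells; at most 1.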

CC(=O)NC[C@H]1CN(c2ccc(N3CCOCC3)c(F)c2)C(=O)O1 [Linezolid] + COc1cc(Cc2cnc(N)nc2N)cc(OC)c1OC [Trimethoprim]
Conditions | Bliss interaction score
[1] | 0.129
[2] | 0.096
[3] | -0.161
[4] | 0.0503

one replicate
Conditions | fitness
[5], first compound 0.125 µg/mL, partner 0.125 µg/mL | 0.693
[5], first compound 1 µg/mL, partner 0.125 µg/mL | 0.0426
[5], first compound 1 µg/mL, partner 0.25 µg/mL | 0.0292
[5], first compound 1 µg/mL, partner 0.5 µg/mL | 0.0293
[6], first compound 0.0625 µg/mL, partner 0.125 µg/mL | 0.455
[6], first compound 0.0625 µg/mL, partner 0.25 µg/mL | 0.379
[6], first compound 0.0625 µg/mL, partner 0.5 µg/mL | 0.365
[6], first compound 0.125 µg/mL, partner 0.1 µg/mL | 0.661
[6], first compound 0.125 µg/mL, partner 0.2 µg/mL | 0.51
[6], first compound 0.125 µg/mL, partner 0.4 µg/mL | 0.458
[6], first compound 0.125 µg/mL, partner 1 µg/mL | 0.338
[6], first compound 0.125 µg/mL, partner 2 µg/mL | 0.252
[6], first compound 0.25 µg/mL, partner 0.1 µg/mL | 0.224
[6], first compound 0.25 µg/mL, partner 0.2 µg/mL | 0.137
[6], first compound 0.25 µg/mL, partner 0.4 µg/mL | 0.0855
[6], first compound 0.25 µg/mL, partner 1 µg/mL | 0.0539
[6], first compound 0.25 µg/mL, partner 2 µg/mL | 0.0332
[6], first compound 0.5 µg/mL, partner 0.1 µg/mL | 0.0326
[6], first compound 0.5 µg/mL, partner 0.125 µg/mL | 0.0335
[6], first compound 0.5 µg/mL, partner 0.2 µg/mL | 0.0707
[6], first compound 0.5 µg/mL, partner 0.4 µg/mL | 0.034
[6], first compound 0.5 µg/mL, partner 1 µg/mL | 0.0459
[6], first compound 0.5 µg/mL, partner 2 µg/mL | 0.0328

fitness
Conditions | partner 0.125 µg/mL | partner 0.25 µg/mL | partner 0.5 µg/mL | partner 1 µg/mL
[5], first compound 0.125 µg/mL | – | 0.7 | 0.54 | 0.0522
[5], first compound 0.25 µg/mL | 0.511 | 0.566 | 0.462 | 0.118
[5], first compound 0.5 µg/mL | 0.157 | 0.153 | 0.139 | 0.115
[6], first compound 0.125 µg/mL | 0.481 | – | – | –
[6], first compound 0.25 µg/mL | 0.178 | 0.239 | 0.149 | –
[6], first compound 0.5 µg/mL | – | 0.0539 | 0.0519 | –

CC(=O)NC[C@H]1CN(c2ccc(N3CCOCC3)c(F)c2)C(=O)O1 [Linezolid] + C[n+]1ccc(-c2cc[n+](C)cc2)cc1 [Paraquat]
Conditions | Bliss interaction score
[1] | 0.0716
[2] | -0.0403
[3] | 0.109
[4] | 0.0297

fitness
Conditions | first compound 0.105 µg/mL | first compound 0.125 µg/mL | first compound 0.21 µg/mL | first compound 0.25 µg/mL | first compound 0.42 µg/mL | first compound 0.5 µg/mL
[5], partner 1.25 µg/mL | – | 0.812 | – | 0.6 | – | 0.234
[5], partner 2.5 µg/mL | – | 0.768 | – | 0.63 | – | 0.295
[5], partner 5 µg/mL | – | 0.845 | – | 0.654 | – | 0.323
[6], partner 1.25 µg/mL | – | 0.562 | – | 0.068 | – | 0.0393
[6], partner 2.5 µg/mL | – | 0.521 | – | 0.0848 | – | 0.0301
[6], partner 5 µg/mL | – | 0.531 | – | 0.101 | – | 0.0453
[7], partner 1.5 µg/mL | 0.876 | – | 0.76 | – | 0.598 | –
[7], partner 3 µg/mL | 0.836 | – | 0.743 | – | 0.565 | –
[7], partner 6 µg/mL | 0.826 | – | 0.711 | – | 0.565 | –

fitness, one replicate
Conditions | partner 1.25 µg/mL | partner 1.5 µg/mL | partner 2.5 µg/mL | partner 3 µg/mL | partner 5 µg/mL | partner 6 µg/mL
[5], first compound 1 µg/mL | 0.0626 | – | 0.0623 | – | 0.0727 | –
[6], first compound 0.0625 µg/mL | 0.876 | – | 0.876 | – | 0.749 | –
[7], first compound 0.2 µg/mL | – | 0.883 | – | 0.921 | – | 0.93
[7], first compound 0.4 µg/mL | – | 0.822 | – | 0.853 | – | 0.874
[7], first compound 0.8 µg/mL | – | 0.621 | – | 0.626 | – | 0.727

CC(=O)NC[C@H]1CN(c2ccc(N3CCOCC3)c(F)c2)C(=O)O1 [Linezolid] + CCCCCCCCCC(=O)N[C@@H]1[C@H]([C@@H]([C@H](O[C@H]1OC2=C3C=C4C=C2OC5=C(C=C(C=C5)[C@H]([C@H]6C(=O)N[C@@H](C7=C(C(=CC(=C7)O)OC8[C@H]([C@H]([C@@H]([C@H](O8)CO)O)O)O)C9=C(C=CC(=C9)[C@H](C(=O)N6)NC(=O)[C@@H]4NC(=O)[C@@H]1C2=CC(=CC(=C2)OC2=C(C=CC(=C2)[C@H](C(=O)N[C@H](CC2=CC(=C(O3)C=C2)Cl)C(=O)N1)N)O)O)O)C(=O)O)O[C@H]1[C@@H]([C@H]([C@@H]([C@H](O1)CO)O)O)NC(=O)C)Cl)CO)O)O [Teicoplanin]
main component drawn
Conditions | Bliss interaction score
[1] | 0.109
[2] | 0.116
[3] | -0.0593
[4] | -0.0585

fitness, [5], main component drawn
Conditions | first compound 0.125 µg/mL | first compound 0.25 µg/mL | first compound 0.5 µg/mL
partner 0.1562 µg/mL | 0.852 | 0.649 | 0.158
partner 0.3125 µg/mL | 0.989 | – | –
partner 0.625 µg/mL | ≥ 1 | – | –

[5], first compound 1 µg/mL, one replicate, main component drawn
Conditions | fitness
partner 0.1562 µg/mL | 0.0359
partner 0.3125 µg/mL | 0.0319
partner 0.625 µg/mL | 0.0292

CC(=O)NC[C@H]1CN(c2ccc(N3CCOCC3)c(F)c2)C(=O)O1 [Linezolid] + Cc1ncc([N+](=O)[O-])n1CCO [Metronidazole]
Conditions | Bliss interaction score
[1] | 0.111
[2] | 0.0844
[3] | 0.143
[4] | 0.103

Conditions | fitness
[5], first compound 0.125 µg/mL, partner 0.625 µg/mL | 0.947
[5], first compound 0.125 µg/mL, partner 1.25 µg/mL | 0.94
[5], first compound 0.125 µg/mL, partner 2.5 µg/mL | 0.942
[5], first compound 0.25 µg/mL, partner 0.625 µg/mL | 0.621
[5], first compound 0.25 µg/mL, partner 1.25 µg/mL | 0.723
[6], first compound 0.125 µg/mL, partner 0.625 µg/mL | 0.648
[6], first compound 0.125 µg/mL, partner 1.25 µg/mL | 0.607
[6], first compound 0.125 µg/mL, partner 2.5 µg/mL | 0.597
[6], first compound 0.25 µg/mL, partner 0.625 µg/mL | 0.0733
[6], first compound 0.25 µg/mL, partner 1.25 µg/mL | 0.0982
[6], first compound 0.25 µg/mL, partner 2.5 µg/mL | 0.105
[6], first compound 0.5 µg/mL, partner 0.625 µg/mL | 0.0494
[6], first compound 0.5 µg/mL, partner 1.25 µg/mL | 0.0531
[6], first compound 0.5 µg/mL, partner 2.5 µg/mL | 0.0511
[7], first compound 0.105 µg/mL, partner 1.25 µg/mL | 0.866
[7], first compound 0.105 µg/mL, partner 2.5 µg/mL | 0.877
[7], first compound 0.105 µg/mL, partner 5 µg/mL | 0.841
[7], first compound 0.2 µg/mL, partner 1.073 µg/mL | 0.832
[7], first compound 0.2 µg/mL, partner 2.145 µg/mL | 0.804
[7], first compound 0.2 µg/mL, partner 4.29 µg/mL | 0.817
[7], first compound 0.21 µg/mL, partner 1.25 µg/mL | 0.776
[7], first compound 0.21 µg/mL, partner 2.5 µg/mL | 0.78
[7], first compound 0.21 µg/mL, partner 5 µg/mL | 0.753
[7], first compound 0.4 µg/mL, partner 1.073 µg/mL | 0.741
[7], first compound 0.4 µg/mL, partner 2.145 µg/mL | 0.77
[7], first compound 0.4 µg/mL, partner 4.29 µg/mL | 0.714
[7], first compound 0.42 µg/mL, partner 1.25 µg/mL | 0.663
[7], first compound 0.42 µg/mL, partner 2.5 µg/mL | 0.646
[7], first compound 0.42 µg/mL, partner 5 µg/mL | 0.63
[7], first compound 0.8 µg/mL, partner 2.145 µg/mL | 0.445
[7], first compound 0.8 µg/mL, partner 4.29 µg/mL | 0.424

fitness, one replicate
Conditions | partner 0.625 µg/mL | partner 1.25 µg/mL | partner 2.5 µg/mL
[5], first compound 1 µg/mL | 0.0445 | 0.0462 | 0.042
[6], first compound 0.0625 µg/mL | 0.86 | 0.895 | 0.875
